Square brackets hold non-standard residues; d marks the D form. Peptide text beside a SMILES is read from it. * marks the point of attachment. Dolaproine = CO[C@@H]([C@@H]1CCCN1)[C@@H](C)C(=O)O; Hexanoyl(6-maleimido) = O=C1C=CC(=O)N1CCCCCC(=O)*; Dil = CC[C@H](C)[C@H](NC)[C@@H](CC(=O)O)OC; X1 = C[C@@H](N*)[C@@H](O)c1ccccc1; NMeV = CN[C@H](C(=O)O)C(C)C
How the values were obtained:
293-GCC#2 tumors [1] = experiment: Efficacy study with 5F9vcMMAF and 5F9-DMx in 293-GCC#2 s.c. tumors; type: in vivo; details: 293-GCC#2 bearing SCID mice, 75 and 150 ug/kg toxin, q14d schedule
Experimental: 5F9-SPDB-DM4, 5F9-SMCC-DM1 and 5F9vcMMAF were tested for efficacy in the 293-GCC#2 tumor model at two doses (75 μg/kg and 150 μg/kg toxin), on a q14d×5 schedule. Specifically, this study included vehicle-treated control, Sc209-DM1 (150 μg/kg DM1 eq), Sc209-DM4 (150 μg/kg DM4 eq), Sc209-vcMMAF (150 μg/kg MMAF eq), 5F9-DM1 (150 μg/kg DM1 eq), 5F9-DM1 (75 μg/kg DM1 eq), 5F9-DM4 (150 μg/kg DM4 eg), 5F9-DM4 (75 μg/kg DM4 eq), 5F9-vcMMAF (150 μg/kg MMAF eq), and 5F9-vcMMAF (75 μg/kg MMAF eq). Taconic females mice bearing 293-GCC#2 cells (10 mice per group) were used.
FIG. 1 depicts tumor growth in 293-GCC#2 bearing SCID mice treated with 5F9vc-MMAF, -DM1, and -DM4 on a q14d schedule. […] Therefore at these doses and schedules, 5F9-SPDB-DM4 had the greatest efficacious differential from its control conjugate.
5F9-SPDB-DM4 and 5F9-SMCC-DM1 were tested for efficacy in the 293-GCC#2 tumor model at two doses (75 ug/kg and 150 ug/kg toxin) on a q7d×5 schedule. Specifically, this study included vehicle-treated control, 5F9 alone (15 mg/kg), DM1 (300 μg/kg), DM4 (300 μg/kg), Sc209-DM1 (150 μg/kg DM1 eq), Sc209-DM4 (150 μg/kg DM4 eq), Sc209-vcMMAF (150 μg/kg MMAF eq), 5F9-DM1 (150 μg/kg DM1 eq), 5F9-DM1 (75 μg/kg DM1 eq), 5F9-DM4 (150 μg/kg DM4 eq), and 5F9-DM4 (75 μg/kg DM4 eq). Taconic females mice bearing 293-GCC#2 cells (10 mice per group) were used.

HT29-GCC#5 tumors = experiment: Pilot efficacy studies in HT29-GCC#5 s.c. tumors; type: in vivo, mice; details: 150 μg/kg on a q3d×5 schedule
Experimental: Studies were performed to determine efficacious conjugates and dosage regimens in mice bearing HT29-GCC#5 tumors. Mice were dosed with single or multiple doses. These studies determined that there was toxicity at too frequent dosing at higher levels of toxin conjugate (e.g., 150 μg/kg 5F9vcMMAF on a q3d×5 schedule). Another study determined that q14d×5 schedule was too infrequent in this model to allow some toxin conjugates to show significant efficacy vs. controls.

293 GCC#2 cells = type: cell-based, human; details: 293 cell model (293 GCC#2 vs control cells / 209 ADCs)
293 GCC#2 tumors = experiment: Efficacy study with auristatin conjugates in 293 GCC#2 tumors; type: in vivo, SCID mice; set-up: TGI (tumor growth inhibition) / TGD (tumor growth delay): unit not given here
Experimental: 293 GCC#2 tumor-bearing SCID mice were treated with 5F9 conjugates with vc MMAE, vcMMAF or mcMMAF at three doses in comparison with 209 conjugates of these toxins or with free toxins or vehicle control. Doses were administered iv on a q7d×4 schedule. Tumors were harvested at days 3, 7, 10, 13 and 17. […] Table 18 provides a summary of the results (TGI=tumor growth inhibition, T/C=treatment/control, TGD=tumor growth delay, CR/PR=complete response/partial response; p value=measure to judge statistical significance, NS=not significant).
All three of these ADCs were efficacious in the 293 GCC#2 model on a q7d schedule.

HT29 GCC#5 cells = type: cell-based, human; details: HT29 cell model
293-GCC#2 tumors [2] = experiment: PD study: phosphohistone H3 positive tumor cells after single iv dose; type: in vivo, mice; details: 75 or 150 ug/kg toxin
Experimental: An alternative tumor model used 293-GCC#2 cells. A PD study for 5F9 ADCs in 293-GCC#2 tumor bearing mice was performed. Mice were dosed with single doses of 5F9vcMMAF at 75 ug/kg or 150 ug/kg and serum was taken at timepoints from 1 hr through 4 days for PD analysis of phosphohistone H3 to test antimitotic effects of the toxin on tumor cells. Phospho-histone H3 was detected by antibody (Upstate Biotechnology, now Millipore, Billerica, Mass.) staining of paraffin embedded sections of tumors.
Similar studies measured the phosphohistone levels in 293-GCC#2 tumor-bearing mice treated with 5F9vcMMAF, 5F9-SPDB-DM4 and 5F9-SMCC-DM1. Mice were dosed with single doses at 150 ug/kg and serum was taken at timepoints from 1 hr through 21 days for PK analysis of both total antibody and toxin-conjugated antibody. The percentage of phosphohistone H3 positive cells in 293-GCC#2 tumors increased in response to all three ADCS: 5F9vcMMAF, 5F9-SMCC-DM1 and 5F9-SPDB-DM4. Maximal phosphohistone H3 levels were 3- to 5-fold increased over baseline, with peaks at 24 hours post-injection.

CT26 hGCC/luc #32 cells = experiment: Pilot efficacy study with naked antibody in CT26 hGCC/luc #32 disseminated model; details: 40 mg/kg
[3] = tested on: PHTX-9c primary human colon tumor xenograft; experiment: Antitumor activity in PHTX-9c primary human colon tumor xenograft (Study A and Study B); type: in vivo, CB-17 SCID mice
Experimental: Female CB-17 SCID mice (eight weeks old) were inoculated subcutaneously (SC) into the flank with PHTX-9c tumor fragments (2 mm×2 mm). Tumor growth was monitored twice per week using vernier calipers and the mean tumor volume was calculated using the formula (0.5×[length×width^2]). When the mean tumor volume reached approximately 150 mm^3 (Study A) or 160 mm^3 (Study B), animals were randomized into treatment groups (n=10/group for Study A and n=9/group for Study B).
Doses were administered on Days 1, 8, and 15 for the QW schedule and Days 1, 4, 8, 11, 15, and 18 for the BIW schedule. […] The equivalent dose of linker+MMAE is 4% of the 5F9-vcMMAE dose. These calculations are based on a mean 3.9 MMAE molecules per antibody and a free antibody molecular weight of 150 kD. Actual antibody molecular weight will vary slightly due to degree of glycosylation.
Tumor volume and body weight were measured twice weekly and were continued beyond the treatment period to measure regrowth kinetics, as evidenced by tumor growth delay (TGD). Tumor volume measurements were continued until tumor volume reached 10% of the body weight in a single mouse within a treatment group, at which time the group was terminated. The percentage of tumor growth inhibition (TGI) ([mean tumor volume of the control group−mean tumor volume of a treated group]/mean tumor volume of the control group; a T/C ratio) was determined on Day 20. The T/C ratios across a treatment group were compared to the T/C ratios of the control group using a two-tailed Welch's t-test.
The differences in the tumor growth trends over time between pairs of treatment groups were assessed using linear mixed effects regression models. These models account for the fact that each animal was measured at multiple time points. A separate model was fit for each comparison, and the areas under the curve (AUC) for each treatment group were calculated using the predicted values from the model. The percent decrease in AUC (dAUC) relative to the reference group was then calculated.

## 5F9-vcMMAF: 5F9 anti-GCC antibody molecule conjugated with mc-vc-MMAF
293-GCC#2 tumors [1]
  Tumor growth (efficacy): the most efficacious
HT29-GCC#5 tumors
  Toxicity: toxicity
293 GCC#2 cells
  Target enhanced cell kill: target enhanced cell kill
293 GCC#2 tumors; 37.5 μg/kg iv q7d×4
  T/C (treatment/control): 0.35
  TGD (tumor growth delay): 7.1
  TGI (tumor growth inhibition): 65.2
293 GCC#2 tumors; 75 μg/kg iv q7d×4
  T/C (treatment/control): 0.12
  TGI (tumor growth inhibition): 88.5
293 GCC#2 tumors; 150 μg/kg iv q7d×4
  T/C (treatment/control): 0.03
  TGI (tumor growth inhibition): 97
293 GCC#2 tumors; 293 GCC#2 model, iv, q7d×4 schedule
  Tumor growth inhibition (efficacy): more potent than 5F9-vcMMAE
HT29 GCC#5 cells
  Target enhanced cell kill: target enhanced cell kill
293-GCC#2 tumors [2]
  Percentage of phosphohistone H3 positive cells in 293-GCC#2 tumors: increased

## 5F9-SMCC-DM1: 5F9 conjugated to DM1 using SMCC heterobifunctional crosslinker
293-GCC#2 tumors [1]
  Tumor growth (efficacy): efficacious, however less so than 5F9-SPDB-DM4 at 150 ug/kg
293-GCC#2 tumors [2]
  Percentage of phosphohistone H3 positive cells in 293-GCC#2 tumors: increased

## CC[C@H](C)[C@@H]([C@@H](CC(=O)N1CCC[C@H]1[C@H](OC)[C@@H](C)C(=O)N[C@@H](Cc1ccccc1)C(=O)O)OC)N(C)C(=O)[C@@H](NC(=O)[C@H](C(C)C)N(C)C(=O)CCCCCN1C(=O)C=CC1=O)C(C)C [Free mcMMAF] ({Hexanoyl(6-maleimido)}-[NMeV]V[Dil][Dolaproine]F-OH)
293 GCC#2 tumors; 150 μg/kg iv q7d×4
  CR/PR (complete response/partial response): 0
  T/C (treatment/control): 1.03
  TGD (tumor growth delay): −1.3
  TGI (tumor growth inhibition): −3.4

## 5F9-vcMMAE: 5F9 mAb conjugated to MMAE through the vc (Val-Cit) linker; average drug loading about 3.6
293 GCC#2 tumors; 75 μg/kg iv q7d×4
  T/C (treatment/control): 0.45
  TGD (tumor growth delay): 4.4
  TGI (tumor growth inhibition): 54.5
293 GCC#2 tumors; 150 μg/kg iv q7d×4
  T/C (treatment/control): 0.17
  TGI (tumor growth inhibition): 83.5
293 GCC#2 tumors; 300 μg/kg iv q7d×4
  T/C (treatment/control): 0.03
  TGI (tumor growth inhibition): 96.9

## CC[C@H](C)[C@@H]([C@@H](CC(=O)N1CCC[C@H]1[C@H](OC)[C@@H](C)C(=O)N[C@H](C)[C@@H](O)c1ccccc1)OC)N(C)C(=O)[C@@H](NC(=O)[C@@H](NC)C(C)C)C(C)C [Free MMAE] (H-[NMeV]V[Dil][Dolaproine]-X1)
293 GCC#2 tumors; 300 μg/kg iv q7d×4
  CR/PR (complete response/partial response): 0
  T/C (treatment/control): 0.64
  TGD (tumor growth delay): 2
  TGI (tumor growth inhibition): 35.6

## sc209: human IgG1 monoclonal antibody raised against an unrelated target, with no reactivity to GCC; negative control [reference compound]
CT26 hGCC/luc #32 cells
  T/C compared to 0.9% NaCl group: 0.64
CT26 hGCC/luc #32 cells; end of study
  Lung weight, T test P vs. vehicle: 0.4

## CC[C@H](C)[C@@H]([C@@H](CC(=O)N1CCC[C@H]1[C@H](OC)[C@@H](C)C(=O)N[C@H](C)[C@@H](O)c1ccccc1)OC)N(C)C(=O)[C@@H](NC(=O)[C@@H](NC)C(C)C)C(C)C [MMAE, monomethyl auristatin E] (H-[NMeV]V[Dil][Dolaproine]-X1)
[3]; 0.075 mg/kg IV QW
  TGI: no tumor growth inhibition
[3]; 0.135 mg/kg IV QW
  TGI: no tumor growth inhibition
[3]; 0.15 mg/kg IV QW
  TGI: no tumor growth inhibition
[3]; Study A, 0.075 mg/kg IV QW × 3 doses, Day 20
  TGI: 5.0 (p > 0.05) %
[3]; Study A, 0.15 mg/kg IV QW × 3 doses, Day 20
  TGI: 11.1 (p > 0.05) %
[3]; Study B, 0.135 mg/kg IV QW × 3 doses, determined on Day 20
  TGI: 2.2 (p > 0.05) %
